Source: patent publication US20130315843A1, “COMPOSITION FOR REDUCTION OF TRPA1 AND TRPV1 SENSATIONS” (priority 2012, published 2013)

What was measured:
[1] = Trained sensory panel, burn sensation after brushing with menthol dentifrice; type: in vivo, human; design: key: 0 = no burning to 60 = highest intensity; 7.5 difference = significant; conditions: scale 0-60
Protocol: (§1) For EXAMPLES 6 and 7 sensory evaluation studies of menthol and hydrogen peroxide activity were conducted using a methodology patterned after the techniques described in M. C. Meilgaard, et al., Sensory Evaluation Techniques, 4th Ed. (2007). In one study, a panel of 8-15 trained sensory experts evaluated the menthol or peroxide sensations experienced after brushing with a dentifrice containing the menthol or hydrogen peroxide and the respective TRPA1 or TRPV1 antagonists. Panelists brushed teeth with 1.5 grams of a dentifrice (containing coolant) or control (no coolant) and then expectorated. After brush expectoration, panelists evaluated the burn intensity, assigning a number between 0 (no burning) to 60 ([…]). After rinse expectoration, panelists evaluated burning intensity according to the same 0 to 60 scale. Evaluations were conducted at 5, 15, 30, 45, 60 minute, etc. time points. At each evaluation, panelists were instructed to breathe in through pursed lips and evaluate overall burning sensation. In this test, a numerical score difference from the control of 7.5 indicates user significant differences or definite reduction in burning at the specified time point. Measures between 4.0 to 7.5 indicate a noticeable trend in the specified parameter, which is not statistically significant, but noticeable.
For EXAMPLE 6 (TABLES 8 and 9), a panel of 14 trained sensory experts evaluated the sensory profile experienced after brushing with the dentifrice sample formulations shown in TABLES 6 and 7 containing high levels of menthol followed by rinsing with water. Panelists brushed teeth with 1.5 grams of a test dentifrice (containing high menthol levels) or control (no menthol) for 36 seconds and then expectorated. The dentifrice sample formulations (control and high L-Menthol) are shown below in TABLE 6 (with peppermint flavor) and TABLE 7 (with spearmint flavor). The dentifrices were made using conventional methods and are shown below with component amounts in weight % of total composition. […]
For TABLE 10 all the Samples had the same formulation as Sample E from TABLE 6, except for the Control which lacked menthol. After brushing or mouthwash expectoration, panelists evaluated the burning sensation, assigning a number between 0 (no sensation) to 60 (highest intensity sensation). Evaluations were conducted at 5, 10, 20 and 30 minute time points, following expectoration. At each evaluation, panelists were instructed to breathe in through pursed lips and evaluate overall sensation. In this test, a numerical score of 7.5 indicates a significant user noticeable sensation. Differences less than 7.5, but greater than 5.0 indicate the trending of the data on a specific attribute.

human TRPA1 = human TRPA1 (Homo sapiens, UniProt O75762); assay: FLIPR Ca2+ assay, reduction of hydrogen peroxide activation of TRPA1; type: cell-based; design: expressed in transfected cells
human TRPA1, sequence (O75762 whole entry): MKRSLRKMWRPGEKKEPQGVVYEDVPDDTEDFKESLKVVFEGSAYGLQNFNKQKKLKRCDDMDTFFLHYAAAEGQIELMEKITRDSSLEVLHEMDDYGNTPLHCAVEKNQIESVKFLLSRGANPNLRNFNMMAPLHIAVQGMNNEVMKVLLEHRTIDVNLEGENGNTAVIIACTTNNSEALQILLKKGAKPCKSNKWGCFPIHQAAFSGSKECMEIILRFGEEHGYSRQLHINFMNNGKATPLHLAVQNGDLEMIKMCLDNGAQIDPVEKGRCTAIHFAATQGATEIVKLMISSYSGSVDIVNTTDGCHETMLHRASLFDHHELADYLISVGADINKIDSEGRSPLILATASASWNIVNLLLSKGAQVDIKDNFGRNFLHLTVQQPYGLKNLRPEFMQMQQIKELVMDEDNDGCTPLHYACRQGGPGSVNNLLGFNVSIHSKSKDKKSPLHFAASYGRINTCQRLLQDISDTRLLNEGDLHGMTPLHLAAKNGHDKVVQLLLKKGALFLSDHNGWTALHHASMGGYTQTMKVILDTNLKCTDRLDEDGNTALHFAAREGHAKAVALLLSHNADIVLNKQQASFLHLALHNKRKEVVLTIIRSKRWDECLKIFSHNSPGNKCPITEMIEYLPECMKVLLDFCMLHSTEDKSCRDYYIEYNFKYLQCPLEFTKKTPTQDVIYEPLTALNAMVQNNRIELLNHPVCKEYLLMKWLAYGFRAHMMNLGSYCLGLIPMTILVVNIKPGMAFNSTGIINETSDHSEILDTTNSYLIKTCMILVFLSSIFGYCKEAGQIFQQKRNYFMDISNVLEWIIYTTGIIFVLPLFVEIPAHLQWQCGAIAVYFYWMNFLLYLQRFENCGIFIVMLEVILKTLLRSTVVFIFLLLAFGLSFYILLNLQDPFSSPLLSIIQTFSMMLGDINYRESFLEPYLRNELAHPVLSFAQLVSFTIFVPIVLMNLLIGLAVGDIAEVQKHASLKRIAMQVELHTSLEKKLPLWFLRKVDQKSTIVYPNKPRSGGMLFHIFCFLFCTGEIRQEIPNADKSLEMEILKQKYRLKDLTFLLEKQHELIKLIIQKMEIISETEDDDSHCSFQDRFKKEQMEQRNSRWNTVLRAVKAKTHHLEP
Protocol: After centrifugation, a pellet of cells was formed in the bottom of the tube separating them from the supernatant solution.
(§2) The pelleted cells were re-suspended in 10 ml assay buffer and 90 μl aliquots (˜50,000 cells) per well delivered to a 96-well assay plate containing 10 μl of test compounds ([…]) or buffer control and incubated at room temperature for 30 minutes.

[2] = Trained sensory panel, burning and numbing sensation after hydrogen peroxide mouthwash; type: in vivo, human; design: key to Burning Sensation: 0 = no sensation, 60 = highest intensity sensation; conditions: scale 0-60
Protocol: as §1
For EXAMPLE 7, a panel of 10 trained sensory experts evaluated the sensory profile experienced after rinsing with 30 grams of a test mouthwash (containing hydrogen peroxide and TRPA1 or TRPV1 antagonist) or control (containing hydrogen peroxide and no TRPA1 or TRPV1 antagonist) for 30 seconds and then expectorated. After expectoration, panelists evaluated the sensorial profile (cooling, warming, burning, numbing, and astringency), assigning a number between 0 (no sensation) to 60 (highest intensity sensation). Evaluations were conducted at 2.5, 5, 10, 20, and 30 minute time points, following expectoration at each evaluation, panelists were instructed to breathe in through pursed lips and evaluate overall burning or numbing sensation. The hydrogen peroxide containing mouthwash formulations are shown below in TABLE 11. The mouthwash samples tested comprised a control having the components listed in TABLE 11 by weight % of the composition or the control formulation plus TRPA1 or TRPV1 antagonist, as shown in TABLE 12. The mouthwashes were made using conventional methods and are shown below with amounts in weight % of total composition.

human TRPV1 [3] = biological target: T1, human TRPV1 (Homo sapiens, UniProt Q8NER1); assay: FLIPR Ca2+ assay, reduction of hydrogen peroxide activation of TRPV1; type: cell-based; design: expressed in transfected cells
T1 sequence (Q8NER1 whole entry): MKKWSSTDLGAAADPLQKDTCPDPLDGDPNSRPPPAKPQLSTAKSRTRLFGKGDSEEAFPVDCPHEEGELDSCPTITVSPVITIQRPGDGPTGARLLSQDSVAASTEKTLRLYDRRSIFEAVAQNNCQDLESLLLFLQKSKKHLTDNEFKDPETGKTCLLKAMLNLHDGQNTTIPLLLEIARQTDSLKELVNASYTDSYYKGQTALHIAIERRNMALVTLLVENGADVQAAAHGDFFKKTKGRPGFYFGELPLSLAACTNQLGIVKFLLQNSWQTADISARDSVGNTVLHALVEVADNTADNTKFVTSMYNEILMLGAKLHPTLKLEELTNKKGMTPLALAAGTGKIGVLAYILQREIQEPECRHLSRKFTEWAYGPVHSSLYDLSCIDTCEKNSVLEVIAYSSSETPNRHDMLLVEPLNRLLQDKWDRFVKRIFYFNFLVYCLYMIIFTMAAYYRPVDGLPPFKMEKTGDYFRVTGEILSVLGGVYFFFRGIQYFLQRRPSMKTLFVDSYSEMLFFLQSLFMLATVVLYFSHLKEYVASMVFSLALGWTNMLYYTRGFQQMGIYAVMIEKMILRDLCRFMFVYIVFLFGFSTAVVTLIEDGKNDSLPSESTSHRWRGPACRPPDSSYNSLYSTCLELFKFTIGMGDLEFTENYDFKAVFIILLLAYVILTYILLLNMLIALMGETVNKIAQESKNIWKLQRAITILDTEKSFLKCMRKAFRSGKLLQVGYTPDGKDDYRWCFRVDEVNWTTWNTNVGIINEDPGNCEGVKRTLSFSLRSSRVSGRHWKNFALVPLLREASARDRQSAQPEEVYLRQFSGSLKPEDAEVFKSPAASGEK
Protocol: (§3) Cells were detached with addition of 10 ml of PBS (phosphate buffered saline) by hand shaking gently. Cells were transferred to a 50 ml tube and centrifuged at 850 rpm for 3 minutes to remove PBS.
The pelleted cells were re-suspended in 10 ml assay buffer and 90 μl aliquots (˜50,000 cells) per well delivered to a 96-well assay plate containing 10 μl of test compounds (1 mM in assay buffer, […]) or buffer control and incubated at room temperature for 30 minutes.

human TRPV1 [4] = biological target: T1, human TRPV1; assay: FLIPR Ca2+ assay, reduction of capsaicin activation of TRPV1; type: cell-based; design: expressed in transfected cells
Protocol: as §3, §2

[5] = Headspace GC reduction of 1-propanethiol by protectant (Michael Acceptor) compounds; conditions: for Percent Thiol Reduction vs. Control: 0.1% SLS
Protocol: For EXAMPLES 11 and 12 a 0.1% sodium lauryl sulfate (SLS) aqueous solution was prepared to contain either 1 ppm or 10 ppm of 1-propanethiol. SLS solution was added to the sample and control solutions to assist in solubilization of the more hydrophobic compounds. Control solutions contained surfactant and 1-propanethiol, while sample solutions contained these components plus a protectant compound added at either 0.01% or 0.05%. 100 μL aliquots of control or test solutions were aliquotted into a 22 mL headspace vial, vortexed for 30 seconds, and incubated for 30 minutes at 60 C in an oven. After that period, 1 mL of head space was sampled and injected into an Agilent 7890 gas chromatograph equipped with a sulfur chemiluminescence detector (GC-SCD). Peak areas of the 1-propanethiol control sample (no protectant compound added) were established by triplicate injection of the control sample. The area of the propanethiol peak produced from samples containing selected protectant molecules were then determined and ratioed to the 1-propanethiol control peak area, subtracted from 1, and multiplied by 100 to calculate percent reduction of the thiol peak, thus indicating the effectiveness of each protectant at reducing the level of thiol.
The samples in TABLE 17 were prepared by combining 1 ppm 1-propanethiol with 0.1% sodium lauryl sulfate with 1% of the test compounds. The volatile sulfurs were measured with headspace GC/MS using a SPEME column to capture the volatile sulfur.
The samples in TABLE 18 were prepared by combining either 1 or 10 ppm 1-propanethiol with 0.1% sodium lauryl sulfate with either 0.01% or 0.05% of the test compounds.

[6] = 5 Min After Rinse, dentifrice Sample E (1% menthol) with antagonist levels as E42
[7] = 10 Min After Rinse, dentifrice Sample E (1% menthol) with antagonist levels as E42
[8] = 20 Min After Rinse, dentifrice Sample E (1% menthol) with antagonist levels as E42
[9] = 30 Min After Rinse, dentifrice Sample E (1% menthol) with antagonist levels as E42
[10] = After Expectoration, dentifrice Sample E (1% added menthol) with Apritone 200 ppm, Dihydrojasmone 6 ppm, Isobornyl Isobutyrate 100 ppm, α-heptyl-γ-valerolactone 100 ppm as named
[11] = After Rinse, dentifrice Sample E (1% menthol) with antagonist levels as E42
[12] = 2 Min 30 SEC After Expectoration, H2O2 mouthwash, antagonist levels as E48
[13] = 5 Min After Expectoration, H2O2 mouthwash, antagonist levels as E48
[14] = 10 Min After Expectoration, H2O2 mouthwash, antagonist levels as E48
[15] = 20 Min After Expectoration, H2O2 mouthwash, antagonist levels as E48
[16] = 30 Min After Expectoration, H2O2 mouthwash, antagonist levels as E48
[17] = After Expectoration, H2O2 mouthwash, antagonist levels as E48
[18] = 1 ppm 1-propanethiol, 0.01% test compound
[19] = 1 ppm 1-propanethiol, 0.05% test compound
[20] = 10 ppm 1-propanethiol, 0.01% test compound
[21] = 10 ppm 1-propanethiol, 0.05% test compound

## CC(C)C(=O)O[C@@H]1C[C@H]2CC[C@]1(C)C2(C)C [Isobornyl Isobutyrate]
[1]; [6]
  Burning Sensation Rating: 12.8
[1]; [7]
  Burning Sensation Rating: 5.6
[1]; [8]
  Burning Sensation Rating: 0.6
[1]; [9]
  Burning Sensation Rating: 0.0
[1]; [10]
  Burning Sensation Rating: 25.4
[1]; [11]
  Burning Sensation Rating: 22.8
Human TRPA1
  % Reduction of Hydrogen Peroxide TRPA1 Activation: 80%
  Block of hydrogen peroxide activation of TRPA1: BLOCK ONLY H2O2/TRPA1
  reduction of hydrogen peroxide activation of TRPA1, in words: reduced hydrogen peroxide activation of TRPA1
[2]; [12]
  Burning Sensation: 17.6
  Numbing Sensation: 7.9
[2]; [13]
  Burning Sensation: 11.4
  Numbing Sensation: 5.8
[2]; [14]
  Burning Sensation: 5.1
  Numbing Sensation: 2.5
[2]; [15]
  Burning Sensation: 0.0
  Numbing Sensation: 0.0
[2]; [16]
  Burning Sensation: 0.0
  Numbing Sensation: 0.0
[2]; [17]
  Burning Sensation: 20.9
  Numbing Sensation: 8.4
[2]; Initial in Mouth, hydrogen peroxide mouthwash (TABLE 11) with Apritone 200 ppm, Isobornyl Isobutyrate 100 ppm, Dihydrojasmone 6 ppm as named, 10 panelists
  Burning Sensation: 12.7
Human TRPV1 [3]
  reduction of hydrogen peroxide activation of TRPV1, in words: hydrogen peroxide reduction of TRPV1
Human TRPV1 [3]; Dose 1000
  % inhibition of TRPV1 activation by 500 uM H2O2: 52%
Human TRPV1 [3]; antagonist 100 μM against 500 μM hydrogen peroxide
  % Reduction of Hydrogen Peroxide TRPV1 Activation: 52%
Human TRPV1 [3]; with compound, Dose 1000, 500 uM H2O2
  Ca++ counts: 541
Human TRPV1 [4]; Dose 1000
  % inhibition of TRPV1 activation by 350 nM Capsaicin: 1.5%
Human TRPV1 [4]; with compound, Dose 1000, 350 nM Capsaicin
  Ca++ counts: 14803

## CC1=CC(=O)CC(C)(C)C1 [Isophorone]
[5]; 1 ppm 1-propanethiol, 0.1% sodium lauryl sulfate, 1% test compound, headspace
  % Thiol Reduction: 43.1%

## CC/C=C\CC1=C(C)CCC1=O [cis-Jasmone]
[5]; [18]
  Percent Thiol Reduction vs. Control: 36.1%
[5]; [19]
  Percent Thiol Reduction vs. Control: 55.3%
[5]; [20]
  Percent Thiol Reduction vs. Control: 25.4%
[5]; [21]
  Percent Thiol Reduction vs. Control: 8.2%

## C/C=C/C(=O)C1C(C)C=CCC1(C)C (centres unmarked) [delta damascone]
[5]; 10 ppm 1-propanethiol, compound 0.01%
  thiol reduction, comparison in words: higher activity at its lower concentration (0.01%) than any of the other michael acceptor's

## C/C=C/C(=O)C1C(C)C=CCC1(C)C (centres unmarked) [delta-Damascone]
[5]; [18]
  Percent Thiol Reduction vs. Control: 77.7%
[5]; [19]
  Percent Thiol Reduction vs. Control: 82.3%
[5]; [20]
  Percent Thiol Reduction vs. Control: 81.0%
[5]; [21]
  Percent Thiol Reduction vs. Control: 81.2%

## CCCCCCCC1CC(C)OC1=O (stereo not drawn) [α-heptyl-γ-valerolactone]
[1]; [6]
  Burning Sensation Rating: 13.8
[1]; [7]
  Burning Sensation Rating: 1.3
[1]; [8]
  Burning Sensation Rating: 0.0
[1]; [9]
  Burning Sensation Rating: 0.0
[1]; [10]
  Burning Sensation Rating: 25.4
[1]; [11]
  Burning Sensation Rating: 21.5
